Assay results published in PMC6155603, “Synthesis and Preliminary Biological Evaluation of Indol-3-yl-oxoacetamides as Potent Cannabinoid Receptor Type 2 Ligands” (Molecules : A Journal of Synthetic Chemistry and Natural …, 2017).

Columns and labels:
[1] = molecular target: T1, human CB2 (Homo sapiens, UniProt P34972); assay: radioligand inhibition binding assay, [^3H]WIN55.212-2, membranes of CHO cells stably transfected with human CB2
T1 construct: host or cells: CHO cells (stably transfected), membrane homogenates
T1 sequence (P34972 whole entry): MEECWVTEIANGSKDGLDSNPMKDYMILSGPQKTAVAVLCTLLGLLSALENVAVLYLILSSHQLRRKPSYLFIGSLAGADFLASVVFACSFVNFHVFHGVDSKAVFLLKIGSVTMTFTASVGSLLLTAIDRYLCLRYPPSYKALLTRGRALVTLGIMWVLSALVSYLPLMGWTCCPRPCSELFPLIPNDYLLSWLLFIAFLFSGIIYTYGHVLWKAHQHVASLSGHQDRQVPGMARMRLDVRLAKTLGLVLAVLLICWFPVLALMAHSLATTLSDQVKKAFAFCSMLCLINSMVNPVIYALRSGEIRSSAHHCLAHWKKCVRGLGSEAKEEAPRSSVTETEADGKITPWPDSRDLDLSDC
Protocol: Non-specific binding was determined using 10 µM WIN55.212-2. The individual IC50 values were determined by non-linear curve fitting using GraphPad Prism software (version 3.0, GraphPhad, San Diego, CA, USA), and the corresponding Ki values calculated using the Cheng–Prusoff equation [44]. […] Additionally, the binding affinities towards the CB1 receptor were investigated for compounds 6 and 8 by using [^3H]CP55.40 as competitive radioligand.

[2] = molecular target: CB2; conditions: reported value of lead molecule; cited from earlier work
[3] = molecular target: CB1; conditions: reported value of lead molecule; cited from earlier work
[4] = molecular target: human CB1 receptors (Homo sapiens, UniProt P21554); assay: CB1 binding assay with [^3H]CP55.40 as competitive radioligand; conditions: no displacement of radioligand up to this concentration
Chain of human CB1 receptors (P21554 whole entry): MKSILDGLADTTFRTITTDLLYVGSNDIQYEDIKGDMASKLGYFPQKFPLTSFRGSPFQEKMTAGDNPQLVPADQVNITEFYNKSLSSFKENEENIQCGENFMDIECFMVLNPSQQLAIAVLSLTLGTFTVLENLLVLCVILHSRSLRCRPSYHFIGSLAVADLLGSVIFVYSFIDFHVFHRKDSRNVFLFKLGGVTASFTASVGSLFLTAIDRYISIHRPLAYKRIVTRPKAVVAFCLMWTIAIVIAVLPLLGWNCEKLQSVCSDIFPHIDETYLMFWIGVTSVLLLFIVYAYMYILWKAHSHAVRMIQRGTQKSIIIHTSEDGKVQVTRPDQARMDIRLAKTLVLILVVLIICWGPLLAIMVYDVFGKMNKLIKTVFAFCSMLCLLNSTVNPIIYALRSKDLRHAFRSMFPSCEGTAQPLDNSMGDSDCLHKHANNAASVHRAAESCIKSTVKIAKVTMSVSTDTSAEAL
Protocol: Non-specific binding was determined using 10 µM WIN55.212-2. The individual IC50 values were determined by non-linear curve fitting using GraphPad Prism software (version 3.0, GraphPhad, San Diego, CA, USA), and the corresponding Ki values calculated using the Cheng–Prusoff equation [44]. […] Additionally, the binding affinities towards the CB1 receptor were investigated for compounds 6 and 8 by using [^3H]CP55.40 as competitive radioligand. None of the two derivatives could displace [^3H]CP55.40 from the human CB1 receptors up to a concentration of 100 µM. Thus, within this series of fluoro-substituted compounds, the N-alkyl chain of compound 8 is most suitable to obtain high affinity binding at the CB2 receptor, combined with an excellent selectivity against the CB1 receptor subtype.

| SMILES | Ki [1] [µM] | Ki [2] [µM] | Ki [3] [µM] | concentration up to which [^3H]CP55.40 was not displaced from human CB1 receptors [4] [µM] |
| --- | --- | --- | --- | --- |
| CCCCCn1cc(C(=O)C(=O)NC23CC4CC(CC(C4)C2)C3)c2cc(-c3ccco3)ccc21 [compound 5, N-(Adamantan-1-yl)-2-(5-(furan-2-yl)-1-pentyl-1H-indol-3-yl)-2-oxoacetamide] | 0.0085 | 0.00037 | 0.345 | – |
| O=C(NC12CC3CC(CC(C3)C1)C2)C(=O)c1cn(CCOCCOCCF)c2ccc(-c3ccco3)cc12 [compound 6, N-(Adamantan-1-yl)-2-(1-(2-(2-(2-fluoroethoxy)ethoxy)ethyl)-5-(furan-2-yl)-1H-indol-3-yl)-2-oxoacetamide] | 0.0273 | – | – | > 100 |
| COCCn1cc(C(=O)C(=O)NC23CC4CC(CC(C4)C2)C3)c2cc(-c3ccco3)ccc21 [compound 7, N-(Adamantan-1-yl)-2-(5-(furan-2-yl)-1-(2-methoxyethyl)-1H-indol-3-yl)-2-oxoacetamide] | 0.0161 | – | – | – |
| O=C(NC12CC3CC(CC(C3)C1)C2)C(=O)c1cn(CCOCCF)c2ccc(-c3ccco3)cc12 [compound 8, N-(Adamantan-1-yl)-2-(1-(2-(2-fluoroethoxy)ethyl)-5-(furan-2-yl)-1H-indol-3-yl)-2-oxoacetamide] | 0.0062 | – | – | > 100 |
